The subject of data set [1] is isolation-induced aggressive mice. As to conditions: White et al. 1991; cited from earlier work.
The test system of data set [2] is rats. The following applies: intravenous or subcutaneous administration; cited from earlier work.
The test system of data set [3] is mice. As to conditions: White et al. 1991; cited from earlier work.
Data set [4] deals with male Wistar rats. In words: Ethanol consumption, free choice between water and 5% aqueous ethanol. The following applies: zalospirone 40 mg/kg, fluoxetine 10 mg/kg intraperitoneal; for ethanol consumed compared to control (Ringer's solution): treatment periods, g/kg or ml/rat basis.
Protocol: A 12 hour light/dark cycle was programmed with darkness commencing at 1900 hr. […] The drinking tube positions were switched daily. The ethanol concentration was increased by 1% every 3 days until a concentration of 5% was reached. All rats were weighed daily and water or aqueous ethanol intake recorded.
After 3 days at the 5% ethanol concentration the rats that had consumed the 5% ethanol consistently began baseline and the inconsistent or poor drinkers were dropped from the study. A total of 30 rats began baseline studies. Baseline consisted of 8 days of free choice between water and 5% aqueous ethanol. During this time each rat received intraperitoneal injections of Ringer's solution (NaCl, 0.86 g; KCl, 0.03 g; and CaCl2.2H2 O, 0.033 g diluted to 100 ml with distilled water). Weight and water or 5% aqueous ethanol consumption were determined daily at 0800 hr and 1800 hr.
For data set [5], the system named is monkeys with a preference for alcohol. The following applies: cited from earlier work.

The structures appear in SMILES notation.

Consider `CC1(C)CC(=O)N(CCCCN2CCN(c3ncccn3)CC2)C(=O)C1` [gepirone], for which, in data set [1], the “aggression in isolation-induced aggressive mice” value (from here on “aggression”) is recorded as “reduce aggression”.
On to `CCCN(CCC)C1CCc2cccc(O)c2C1` (centres unmarked) [8-OH-DPAT, 8-hydroxy-2-(di-n-propylamino)tetralin], for which, in data set [2], the paradoxical sleep entry is listed as “reduced”, the slow wave sleep result is listed as “reduced” and the wakefulness entry is listed as “increased wakefulness”.
For `O=C1C2C3C=CC(C4C=CC43)C2C(=O)N1CCCCN1CCN(c2ncccn2)CC1` (centres unmarked) [zalospirone, 3a,4,4a,6a,7a-hexahydro-2-[4-[4-(2-pyrimidinyl)-1-piperazinyl]butyl]-4,7-ethano-1H-cyclobut[f]isoindole-1,3(2H)-dione], the “aggression” value in data set [1] was “reduce aggression”. The “debilitating (sedating) effects at the antiaggressive dose” value in data set [3] was “without the debilitating (sedating) effects”. Also, in data set [4], the “ethanol consumed compared to control (Ringer's solution)” value is on record as “significantly less ethanol”; the “total fluid intake vs control animals” value was “less than with the control animals”; the “water consumption, treated vs. control rats” value is on record as “no significant differences”.
On to `O=C1c2ccccc2S(=O)(=O)N1CCCCN1CCN(c2ncccn2)CC1` [ipsapirone], for which the “aggression” value in data set [1] is listed as “reduce aggression”.
Consider `O=C1CC2(CCCC2)CC(=O)N1CCCCN1CCN(c2ncccn2)CC1` [buspirone], for which the “aggression” value in data set [1] is “reduce aggression”. For the same molecule, in data set [2], the paradoxical sleep result is reported as “reduced”, the slow wave sleep entry was “reduced” and the wakefulness result is “increased wakefulness”. In addition, the preference for alcohol entry in data set [5] is recorded as “lower the preference for alcohol”.
On to `CNCCC(Oc1ccc(C(F)(F)F)cc1)c1ccccc1` (centres unmarked) [fluoxetine], for which, in data set [4], the “ethanol consumed compared to control (Ringer's solution)” value is given as “significantly less ethanol”; the “food consumption compared to control rats” value is “decreased food consumption”; the “total fluid intake vs control animals” value is given as “less than with the control animals”; the “water consumption, treated vs. control rats” value was “no significant differences”. Further, the “weight gain compared to control rats” value in data set [4] was “significantly less weight gain”.

Source of the values: patent publication US5183819A, “Use of fused bicyclic imides in the treatment of various CNS disorders” (American Home Products Corporation, priority 1992, dated 1993).
